The values that follow come from patent publication US12134788B2, “Engineered prephenate dehydrogenases and arogenate dehydrogenases and methods of using the same” (Wisconsin Alumni Research Foundation, priority 2017, dated 2024).

Several values for one entry are separate records, joined by “and”; a condition that tells them apart may be missing. Equal entries are not always repeated. Entries after “also recorded” stand apart in the source; their conditions may differ. Where two headings read alike, the source gives them in different places.

Assay [1] has as its system Methanosaeta harundinacea MhTyrAp variant Q227E. Kind of assay: Kinetic analysis of MhTyrAp Q227E mutant. It is filed as biochemical. On the procedure: (§1) FIGS. 14A-14B show a kinetic analysis of MhTyrAp wild-type and Q227E mutant enzymes. Kinetic analysis was performed with MhTyrAp wild-type (filled circle) and Q227E mutant (open square) enzymes using various concentrations of prephenate (FIG. 14A) and arogenate (FIG. 14B). Initial velocity values at each substrate concentration were fit to the Michaelis-Menten equation using Origin software. Kinetic analyses were conducted for MhTyrA wild-type using 3.41 μg of purified recombinant enzyme, and 4.56 μg and 2.28 μg of purified recombinant Q227E using prephenate and arogenate, respectively.
(§2) ADH and PDH assays were performed using purified recombinant enzymes for SsTyrA and MhTyrA Wt and Q227E mutant, while the E. coli cell lysate was used for OiTyrA as expression and purification of this enzyme was unsuccessful. Reactions contained 0.8 mM substrate (arogenate or prephenate) and 0.8 mM cofactor (NADP+ or NAD+) together with reaction buffer (25 mM HEPES pH 7.6, 50 mM KCl, 10% (v/v) ethylene glycol). For OiTyrA assays containing cell lysates, reactions were incubated for 45 minutes and analyzed using HPLC as previously reported (Schenck et al., 2015). For pure enzymes, reactions were monitored every 10-15 seconds for reduced cofactor at A340 nm using a microplate reader (Tecan Genios). Kinetic parameters of purified recombinant enzymes were determined from assays containing varying concentrations of arogenate (39.1 μM-5 mM) or prephenate (39.1 μM-5 mM) substrate and monitored 10-15 seconds for reduced cofactor at A340 nm using a microplate reader (Tecan Genios). Kinetic parameters were determined by fitting initial velocity data to the Michaelis-Menten equation using Origin software (OriginLab) from technical replicate assays (n=3). Arogenate substrate was prepared by enzymatic conversion of prephenate (Sigma-Aldrich). All enzyme assays were conducted at a reaction time and protein concentration that were in the linear range and proportional to reaction velocity.

For assay [2], the target named is T1, Medicago truncatula MtPDH variant C220D, SEQ ID NO: 1 (Medicago truncatula, UniProt A0A0A0R205, C220D).
T1 sequence (A0A0A0R205 1-268 C220D): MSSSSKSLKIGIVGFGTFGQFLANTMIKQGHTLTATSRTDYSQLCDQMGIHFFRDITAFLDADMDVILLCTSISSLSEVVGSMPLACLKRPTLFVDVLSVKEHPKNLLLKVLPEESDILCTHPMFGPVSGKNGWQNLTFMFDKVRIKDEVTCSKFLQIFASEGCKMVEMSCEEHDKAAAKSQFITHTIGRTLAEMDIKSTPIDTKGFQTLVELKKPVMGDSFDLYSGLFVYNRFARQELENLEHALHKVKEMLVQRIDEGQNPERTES
The experiment in a line: ADH and PDH assay: steady-state kinetics and Tyr inhibition, MtPDH C220D. In kind it is biochemical. To be noted: compared to wild-type MtPDH. The protocol:
(§3) Kinetic parameters of purified recombinant proteins were determined from assays conducted at varying arogenate (19.5 μM-5 mM) and prephenate concentration (23.4 μM-6 mM). Standard assay conditions were 25 mM HEPES pH 7.6, 50 mM KCl and 10% (v/v) ethylene glycol, and 0.5 mM NADP^+ with varied substrate, concentrations. Reactions were initiated by addition of enzyme and incubated at 37° C. monitored every 10-15 seconds at […] using a microplate reader (Tecan Genios). Kinetic parameters were determined by fitting initial velocity data to the Michaelis-Menten equation using the Origin software (OriginLab).
(§4) Arogenate was prepared by enzymatic conversion of prephenate (Sigma-Aldrich) as previously reported^56. For Tyr inhibition assays, Tyr was dissolved in a slightly basic solution (0.025 N NaOH) due to solubility issues, thus the concentration of lysis buffer was increased to 500 mM HEPES final concentration to buffer against the changes by addition of Tyr in the reaction. Reactions containing varying amounts of Tyr (10 μM-8 mM) with 0.5 mM NADP^+ and either 1 mM arogenate or 0.8 mM prephenate were monitored as above.

Assay [3] deals with MhTyrA (MhTyrAp; KUK94425.1), Methanosaeta harundinacea TyrA, wild-type. The experiment in a line: Kinetic analysis of MhTyrAp wild-type. In kind it is biochemical. The settings on record: NADP+ cofactor. On the procedure:
as §1, §2

Assay [4] deals with Peanut PDH/ADH (AipaensisVYE8T), Arachis ipaensis, wild type. The experiment in a line: ADH and PDH assay: steady-state kinetics and Tyr inhibition, peanut PDH/ADH. In kind it is biochemical. The protocol: as §3, §4
Assay [5] has as its target T2, Medicago truncatula MtncADH variant D220C, SEQ ID NO: 10 (Medicago truncatula, UniProt A0A217FAR3, D220C).
T2 construct: D220C by site-directed mutagenesis
T2 sequence (A0A217FAR3 1-266 D220C): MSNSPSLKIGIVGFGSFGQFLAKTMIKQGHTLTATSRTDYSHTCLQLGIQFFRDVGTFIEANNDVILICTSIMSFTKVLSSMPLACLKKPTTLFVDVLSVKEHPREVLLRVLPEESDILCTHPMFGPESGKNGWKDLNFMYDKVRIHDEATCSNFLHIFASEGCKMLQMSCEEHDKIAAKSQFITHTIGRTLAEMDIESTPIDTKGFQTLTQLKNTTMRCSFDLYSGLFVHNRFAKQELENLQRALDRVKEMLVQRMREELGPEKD
Kind of assay: ADH and PDH assay: steady-state kinetics and Tyr inhibition, MtncADH D220C. It is filed as biochemical. To be noted: kcat/Km. The protocol:
as §3, §4

For assay [6], the target named is T3, MtPDH (MtPDH1; Mt3g071980), Medicago truncatula prephenate dehydrogenase, wild type (Medicago truncatula, UniProt A0A0A0R205).
T3 sequence (A0A0A0R205 1-268): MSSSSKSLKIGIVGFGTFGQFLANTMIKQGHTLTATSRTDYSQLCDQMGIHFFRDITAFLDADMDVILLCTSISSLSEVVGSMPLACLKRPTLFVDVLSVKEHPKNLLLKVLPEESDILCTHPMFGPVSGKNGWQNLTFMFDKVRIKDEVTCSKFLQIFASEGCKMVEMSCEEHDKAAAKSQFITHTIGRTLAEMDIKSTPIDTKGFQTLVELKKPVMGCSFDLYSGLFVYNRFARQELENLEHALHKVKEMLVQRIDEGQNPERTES
The experiment in a line: ADH and PDH assay: steady-state kinetics and Tyr inhibition, MtPDH wild type. To be noted: preference for prephenate. It is filed as biochemical. The protocol: as §3
(§5) Arogenate was prepared by enzymatic conversion of prephenate (Sigma-Aldrich) as previously reported^56. For Tyr inhibition assays, Tyr was dissolved in a slightly basic solution (0.025 N NaOH) due to solubility issues, thus the concentration of lysis buffer was increased to 500 mM HEPES final concentration to buffer against the changes by addition of Tyr in the reaction. […]

Assay [7] has as its target T4, GmPDH1 (Gm18g02650), soybean (Glycine max) prephenate dehydrogenase, wild type (Glycine max, UniProt I1MYY4).
T4 construct: homodimer
T4 sequence (I1MYY4 1-271): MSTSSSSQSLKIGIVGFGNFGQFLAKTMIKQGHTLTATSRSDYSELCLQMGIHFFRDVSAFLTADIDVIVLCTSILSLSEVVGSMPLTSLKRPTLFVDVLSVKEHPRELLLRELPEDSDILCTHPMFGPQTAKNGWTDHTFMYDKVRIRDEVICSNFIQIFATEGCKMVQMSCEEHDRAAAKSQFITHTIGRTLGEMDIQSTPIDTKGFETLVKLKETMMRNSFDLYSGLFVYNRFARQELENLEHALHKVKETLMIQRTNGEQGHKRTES
Kind of assay: ADH and PDH assay: steady-state kinetics and Tyr inhibition, GmPDH1 wild type. In kind it is biochemical. The protocol:
as §3, §5

Assay [8] addresses T5, Glycine max GmPDH1 variant N222D, SEQ ID NO: 2 (Glycine max, UniProt I1MYY4, N222D).
T5 sequence (I1MYY4 1-271 N222D): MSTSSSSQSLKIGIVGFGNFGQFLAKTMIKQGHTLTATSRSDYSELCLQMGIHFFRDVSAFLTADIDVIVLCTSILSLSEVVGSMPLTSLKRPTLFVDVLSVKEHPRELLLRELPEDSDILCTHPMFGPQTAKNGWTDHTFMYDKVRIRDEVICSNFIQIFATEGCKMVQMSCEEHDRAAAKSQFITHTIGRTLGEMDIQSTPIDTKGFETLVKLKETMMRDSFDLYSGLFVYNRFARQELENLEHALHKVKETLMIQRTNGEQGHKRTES
Kind of assay: ADH and PDH assay: steady-state kinetics and Tyr inhibition, GmPDH1 N222D. In kind it is biochemical, Glycine max (soybean). The settings on record: versus wild-type GmPDH1. On the procedure: as §3, §4

Assay [9] can be described thus: ADH assay of microbial TyrA enzymes (Example 2). In kind it is biochemical. The settings on record: ADH activity, NADP+ versus NAD+, 0.8 mM. On the procedure: as §2
Assay [10] can be described thus: PDH assay of microbial TyrA enzymes (Example 2). In kind it is biochemical. The settings on record: 0.8 mM arogenate or prephenate, 0.8 mM cofactor. The protocol:
as §2

A word on the kcat: it is the maximal rate divided by the concentration of active sites. Broadly, the kcat/Km is the second-order rate constant that governs catalysis at low substrate concentration. The term Km denotes the substrate concentration at which the rate is half of its maximum.

With `O=C(O)C(=O)CC1(C(=O)O)C=CC(O)C=C1` (stereo not drawn) [prephenate], the kcat is 0.285 ± 0.17 s⁻¹ in [1] (NADP+ cofactor, pH 7.6); 2.4 s⁻¹ and 2.44 ± 0.38 s⁻¹ in assay [3] (pH 7.6); 2.8 ± 0.2 s⁻¹ in assay [4] (0.5 mM NADP^+, pH 7.6, 37° C.); 30.4 s⁻¹ in assay [7] (0.5 mM NADP^+, pH 7.6, 37° C.). Moreover, the specificity constant (kcat/Km) in [1] (NADP+ cofactor, pH 7.6) was 100 M⁻¹ s⁻¹ and 107 ± 10 M⁻¹ s⁻¹; in [3] (pH 7.6), 6400 M⁻¹ s⁻¹ and 6440 ± 20 M⁻¹ s⁻¹; in [4] (0.5 mM NADP^+, pH 7.6, 37° C.) it was 14,740 M^−1 s^−1; in assay [4] (FIG. 7A, with NADP^+), 14.9 mM⁻¹ s⁻¹. The Michaelis constant (Km) in [1] (NADP+ cofactor, pH 7.6, read-out: Km) is 2700 µM and 2670 µM; in assay [1] (read-out: Km for prephenate) it was 2400 µM; in assay [3], 378 µM; in [3] (pH 7.6), 378 ± 20 µM; in assay [4] (0.5 mM NADP^+, pH 7.6, 37° C.), 190 ± 10 µM. Further, in assay [1] (versus wild-type), the “fold increase in Km for prephenate” value is listed as around 10 fold. Besides, in [1] (versus wild-type), the “fold reduction of catalytic efficiency (kcat/Km)” value was determined as 60 fold. Also, the “fold higher Km” value in [2] was 31 fold. In assay [5], the “fold preference for prephenate over arogenate” value came out at 1.7 fold. In addition, the “fold higher kcat/Km, prephenate versus arogenate” value in assay [6] is 21 fold; in assay [7] (preference for prephenate), 139 fold. Further, the “fold reduction in kcat/Km with prephenate” value in assay [8] worked out at 115 fold.

B1: OiTyrA: TyrA from Ochrobactrum intermedium LMG 3301 (α-proteobacteria), E. coli cell lysate (protein)
chain: MRPLRGQSMSRDRNQHTKIGIIGFGAFGQLIARHLNPYFRLYAYDPAADLEQTALMHGVALASVEQVAACDIVILATPVATLESVVDKIAPHLCPGALVLDVGSVKVGPADIMRRGLPAHVDIVATHPLFGPQSARHGIAGLKIAVCPVRGTRFHRVAAFLKKHLSLNVIVTTPEDHDREAAMVQGLTHLIARVLVQMEPLPTRMTTKSFDLLMQAVSMVRHDAPEVFQAIEHANPYAPQVRRHFFALADQINEELARVQPMAAREEAA
modifications: O. intermedium; misc_feature (1)..(269): O. intermedium TyrA OiTyrA
notes: TyrA from Ochrobactrum intermedium LMG 3301 (α-proteobacteria), E. coli cell lysate
On to B1, for which the “cofactor preference (in words)” value in assay [9] is listed as “strongly preferred NAD+”. Moreover, the “ADH and PDH activity (in words)” value in assay [10] is reported as “had ADH but not PDH activity”.

B2: SsTyrA: TyrA from Sediminispirochaeta smaragdinae DSM 11293 (spirochaetes), recombinant (protein)
chain: MVEHTVGIYGLGRFGSFWAKSLAASGLKVIGYNRSKRALPEGVVSGSETEVLSCNTLFYCVAISSFEEVLSRTAAKIGKHTLVFDTCSVKVEPVRTMERLLPQGCTFAGSHPMFGPDSASEGMDGLPMVLCPGRDDEGKVDFWRHHFSKMGLRVIEITADRHDKEAAYTQGITHVVGRILGELDLHESEIATSGYKRLLQVREQTCNDPLQLFIDLQRYNPYTHGMRMELTSALEQIMTLFAQADLPPDRP
modifications: S. smaragdinae; misc_feature (1)..(251): S. smaragdinae TyrA SsTyrA
notes: TyrA from Sediminispirochaeta smaragdinae DSM 11293 (spirochaetes), recombinant
On to B2, for which the “cofactor preference (in words)” value in [9] was “slight preference for NAD+”. In addition, in assay [10], the “ADH and PDH activity (in words)” value is “showed ADH activity; also recorded: PDH activity was not detectable”.
